In ChEMBL document CHEMBL4004803, “Syntheses and antibacterial activity of soluble 9-bromo substituted indolizinoquinoline-5,12-dione derivatives” (Eur J Med Chem, 2017):
Values after ≈ are worked out from the molar mass of the structure shown.

What was measured:
[1] = test system: Staphylococcus aureus; experiment: Antibacterial activity against […] Staphylococcus aureus ATCC 25923 after 20 to 24 hrs by two-fold microdilution method; assay type: functional
[2] = test system: Staphylococcus haemolyticus; experiment: Antibacterial activity against Staphylococcus haemolyticus CICC 10373 after 20 to 24 hrs by two-fold microdilution method; assay type: functional
[3] = test system: Staphylococcus epidermidis; experiment: Antibacterial activity against Staphylococcus epidermidis ATCC 12228 after 20 to 24 hrs by two-fold microdilution method; assay type: functional
[4] = test system: Enterococcus faecalis; experiment: Antibacterial activity against Enterococcus faecalis ATCC 29212 after 20 to 24 hrs by two-fold microdilution method; assay type: functional
[5] = test system: Staphylococcus aureus; experiment: Antibacterial activity against methicillin-resistant Staphylococcus aureus 122045 clinical isolate after 20 to 24 hrs by two-fold microdilution method; assay type: functional
[6] = test system: Staphylococcus aureus; experiment: Antibacterial activity against methicillin-resistant Staphylococcus aureus 212014 clinical isolate after 20 to 24 hrs by two-fold microdilution method; assay type: functional
[7] = test system: Staphylococcus aureus; experiment: Antibacterial activity against methicillin-resistant Staphylococcus aureus 214026 clinical isolate after 20 to 24 hrs by two-fold microdilution method; assay type: functional
[8] = test system: Staphylococcus aureus; experiment: Antibacterial activity against methicillin-resistant Staphylococcus aureus clinical isolate after 20 to 24 hrs by two-fold microdilution method; assay type: functional
[9] = test system: Staphylococcus aureus; experiment: Antibacterial activity against methicillin-resistant Staphylococcus aureus 110414 clinical isolate after 20 to 24 hrs by two-fold microdilution method; assay type: functional
[10] = test system: Staphylococcus aureus; experiment: Antibacterial activity against methicillin-resistant Staphylococcus aureus 10281-2 clinical isolate after 20 to 24 hrs by two-fold microdilution method; assay type: functional
[11] = test system: Staphylococcus aureus; experiment: Antibacterial activity against methicillin-resistant Staphylococcus aureus GLH14 clinical isolate after 20 to 24 hrs by two-fold microdilution method; assay type: functional
[12] = test system: Staphylococcus aureus; experiment: Antibacterial activity against methicillin-resistant Staphylococcus aureus GLH15 clinical isolate after 20 to 24 hrs by two-fold microdilution method; assay type: functional
[13] = test system: Staphylococcus aureus; experiment: Antibacterial activity against methicillin-resistant Staphylococcus aureus 122710-2 clinical isolate after 20 to 24 hrs by two-fold microdilution method; assay type: functional
[14] = test system: Staphylococcus aureus; experiment: Antibacterial activity against methicillin-resistant Staphylococcus aureus 122820-2 clinical isolate after 20 to 24 hrs by two-fold microdilution method; assay type: functional
[15] = test system: Staphylococcus aureus; experiment: Antibacterial activity against methicillin-resistant Staphylococcus aureus 123152 clinical isolate after 20 to 24 hrs by two-fold microdilution method; assay type: functional
[16] = test system: Staphylococcus aureus; experiment: Antibacterial activity against methicillin-resistant Staphylococcus aureus 12308 clinical isolate after 20 to 24 hrs by two-fold microdilution method; assay type: functional
[17] = test system: Staphylococcus aureus; experiment: Antibacterial activity against methicillin-resistant Staphylococcus aureus 130031 clinical isolate after 20 to 24 hrs by two-fold microdilution method; assay type: functional
[18] = test system: Staphylococcus aureus; experiment: Antibacterial activity against methicillin-resistant Staphylococcus aureus 221022 clinical isolate after 20 to 24 hrs by two-fold microdilution method; assay type: functional
[19] = test system: Staphylococcus aureus; experiment: Antibacterial activity against methicillin-resistant Staphylococcus aureus 221014 clinical isolate after 20 to 24 hrs by two-fold microdilution method; assay type: functional
[20] = test system: Staphylococcus aureus; experiment: Antibacterial activity against methicillin-resistant Staphylococcus aureus 224001 clinical isolate after 20 to 24 hrs by two-fold microdilution method; assay type: functional
[21] = test system: Staphylococcus aureus; experiment: Antibacterial activity against methicillin-resistant Staphylococcus aureus 316038 clinical isolate after 20 to 24 hrs by two-fold microdilution method; assay type: functional
[22] = test system: Staphylococcus aureus; experiment: Antibacterial activity against methicillin-resistant Staphylococcus aureus 316031 clinical isolate after 20 to 24 hrs by two-fold microdilution method; assay type: functional
[23] = test system: Staphylococcus aureus; experiment: Antibacterial activity against methicillin-resistant Staphylococcus aureus 3250299 clinical isolate after 20 to 24 hrs by two-fold microdilution method; assay type: functional
[24] = test system: Staphylococcus aureus; experiment: Antibacterial activity against methicillin-resistant Staphylococcus aureus 502025 clinical isolate after 20 to 24 hrs by two-fold microdilution method; assay type: functional
[25] = test system: Staphylococcus aureus; experiment: Antibacterial activity against methicillin-resistant Staphylococcus aureus 518036 clinical isolate after 20 to 24 hrs by two-fold microdilution method; assay type: functional
[26] = test system: Staphylococcus aureus; experiment: Antibacterial activity against methicillin-resistant Staphylococcus aureus 519030 clinical isolate after 20 to 24 hrs by two-fold microdilution method; assay type: functional
[27] = test system: Staphylococcus aureus; experiment: Antibacterial activity against methicillin-resistant Staphylococcus aureus 530231 clinical isolate after 20 to 24 hrs by two-fold microdilution method; assay type: functional
[28] = test system: Staphylococcus aureus; experiment: Antibacterial activity against methicillin-resistant Staphylococcus aureus 531026 clinical isolate after 20 to 24 hrs by two-fold microdilution method; assay type: functional
[29] = test system: Staphylococcus aureus; experiment: Antibacterial activity against methicillin-resistant Staphylococcus aureus 614019 clinical isolate after 20 to 24 hrs by two-fold microdilution method; assay type: functional
[30] = test system: Staphylococcus aureus; experiment: Antibacterial activity against methicillin-resistant Staphylococcus aureus 1012029 clinical isolate after 20 to 24 hrs by two-fold microdilution method; assay type: functional
[31] = test system: Staphylococcus aureus; experiment: Antibacterial activity against methicillin-resistant Staphylococcus aureus 503025 clinical isolate after 20 to 24 hrs by two-fold microdilution method; assay type: functional
[32] = test system: Staphylococcus aureus; experiment: Antibacterial activity against methicillin-resistant Staphylococcus aureus 908046 clinical isolate after 20 to 24 hrs by two-fold microdilution method; assay type: functional
[33] = test system: Staphylococcus aureus; experiment: Antibacterial activity against methicillin-resistant Staphylococcus aureus 912014 clinical isolate after 20 to 24 hrs by two-fold microdilution method; assay type: functional
[34] = test system: Staphylococcus aureus; experiment: Antibacterial activity against methicillin-resistant Staphylococcus aureus 1023043 clinical isolate after 20 to 24 hrs by two-fold microdilution method; assay type: functional
[35] = test system: Staphylococcus aureus; experiment: Antibacterial activity against methicillin-resistant Staphylococcus aureus 1024010 clinical isolate after 20 to 24 hrs by two-fold microdilution method; assay type: functional
[36] = test system: Staphylococcus aureus; experiment: Antibacterial activity against methicillin-resistant Staphylococcus aureus 1024004-2 clinical isolate after 20 to 24 hrs by two-fold microdilution method; assay type: functional
[37] = test system: Staphylococcus aureus; experiment: Antibacterial activity against methicillin-resistant Staphylococcus aureus 1026211 clinical isolate after 20 to 24 hrs by two-fold microdilution method; assay type: functional
[38] = test system: Staphylococcus aureus; experiment: Antibacterial activity against methicillin-resistant Staphylococcus aureus 1103006 clinical isolate after 20 to 24 hrs by two-fold microdilution method; assay type: functional
[39] = test system: Staphylococcus aureus; experiment: Antibacterial activity against methicillin-resistant Staphylococcus aureus 1106003 clinical isolate after 20 to 24 hrs by two-fold microdilution method; assay type: functional
[40] = test system: Staphylococcus aureus; experiment: Antibacterial activity against methicillin-resistant Staphylococcus aureus 1108204 clinical isolate after 20 to 24 hrs by two-fold microdilution method; assay type: functional
[41] = test system: Staphylococcus aureus; experiment: Antibacterial activity against methicillin-resistant Staphylococcus aureus 1207026 clinical isolate after 20 to 24 hrs by two-fold microdilution method; assay type: functional
[42] = test system: Staphylococcus aureus; experiment: Antibacterial activity against methicillin-resistant Staphylococcus aureus 1212057-1 clinical isolate after 20 to 24 hrs by two-fold microdilution method; assay type: functional
[43] = test system: Staphylococcus aureus; experiment: Antibacterial activity against methicillin-resistant Staphylococcus aureus 10844 clinical isolate after 20 to 24 hrs by two-fold microdilution method; assay type: functional
[44] = test system: Staphylococcus aureus; experiment: Antibacterial activity against methicillin-resistant Staphylococcus aureus 109244 clinical isolate after 20 to 24 hrs by two-fold microdilution method; assay type: functional
[45] = test system: Staphylococcus aureus; experiment: Antibacterial activity against methicillin-resistant Staphylococcus aureus 112047 clinical isolate after 20 to 24 hrs by two-fold microdilution method; assay type: functional
[46] = test system: Staphylococcus aureus; experiment: Antibacterial activity against methicillin-resistant Staphylococcus aureus 125025 clinical isolate after 20 to 24 hrs by two-fold microdilution method; assay type: functional
[47] = Solubility of the compound in water at 25 degC measured after shaking for 4 hrs by UV method; assay type: physicochemical; conditions: buffer, 4 h

For O=C1c2cccnc2C(=O)c2c1c(C(=O)OCCCCCN1CCOCC1)c1ccc(Br)cn21, the MIC [1] was 0.016 µg/mL (≈ 0.0304 µM), the MIC [2] was 1 µg/mL (≈ 1.9 µM) and the MIC [3] was ≤ 0.0078 µg/mL. For the same molecule, the MIC [4] was 0.25 µg/mL (≈ 0.475 µM), the MIC [5] was 0.063 µg/mL (≈ 0.12 µM) and the MIC [6] was 0.063 µg/mL (≈ 0.12 µM). For the same molecule, the MIC [7] was 0.063 µg/mL (≈ 0.12 µM), the MIC50 [8] was 0.031 µg/mL (≈ 0.0589 µM) and the MIC90 [8] was 0.125 µg/mL (≈ 0.237 µM). For the same molecule, the MIC [9] was 0.031 µg/mL (≈ 0.0589 µM), the MIC [10] was ≤ 0.0078 µg/mL and the MIC [11] was 0.031 µg/mL (≈ 0.0589 µM). For the same molecule, the MIC [12] was 0.031 µg/mL (≈ 0.0589 µM), the MIC [13] was ≤ 0.0078 µg/mL and the MIC [14] was 0.031 µg/mL (≈ 0.0589 µM). For the same molecule, the MIC [15] was 0.031 µg/mL (≈ 0.0589 µM), the MIC [16] was ≤ 0.0078 µg/mL and the MIC [17] was 0.063 µg/mL (≈ 0.12 µM). For the same molecule, the MIC [18] was 0.031 µg/mL (≈ 0.0589 µM), the MIC [19] was 0.031 µg/mL (≈ 0.0589 µM) and the MIC [20] was 0.25 µg/mL (≈ 0.475 µM). For the same molecule, the MIC [21] was 0.031 µg/mL (≈ 0.0589 µM), the MIC [22] was 0.031 µg/mL (≈ 0.0589 µM) and the MIC [23] was 0.031 µg/mL (≈ 0.0589 µM). For the same molecule, the MIC [24] was 0.125 µg/mL (≈ 0.237 µM), the MIC [25] was 0.063 µg/mL (≈ 0.12 µM) and the MIC [26] was 0.063 µg/mL (≈ 0.12 µM). The MIC [27] was 0.031 µg/mL (≈ 0.0589 µM), the MIC [28] was ≤ 0.0078 µg/mL and the MIC [29] was 0.031 µg/mL (≈ 0.0589 µM). The MIC [30] was ≤ 0.0078 µg/mL, the MIC [31] was 0.031 µg/mL (≈ 0.0589 µM) and the MIC [32] was 0.031 µg/mL (≈ 0.0589 µM). The MIC [33] was 0.063 µg/mL (≈ 0.12 µM), the MIC [34] was 0.031 µg/mL (≈ 0.0589 µM) and the MIC [35] was 0.031 µg/mL (≈ 0.0589 µM). For the same molecule, the MIC [36] was 0.125 µg/mL (≈ 0.237 µM), the MIC [37] was ≤ 0.0078 µg/mL and the MIC [38] was 16 µg/mL (≈ 30.4 µM). The MIC [39] was 16 µg/mL (≈ 30.4 µM), the MIC [40] was 0.25 µg/mL (≈ 0.475 µM) and the MIC [41] was ≤ 0.0078 µg/mL. The MIC [42] was ≤ 0.0078 µg/mL, the MIC [43] was ≤ 0.0078 µg/mL and the MIC [44] was 0.031 µg/mL (≈ 0.0589 µM). The MIC [45] was 0.031 µg/mL (≈ 0.0589 µM), the MIC [46] was ≤ 0.0078 µg/mL and the solubility [47] was “Insoluble”.
